Each structure is given as a SMILES string.

In the first assay the test system is primary hepatocytes isolated from rats. Description: Cell protective effects against doxorubicin in hepatocytes (WST-1 cell viability). To be noted: Hepatocyte; primary rat hepatocytes pretreated with compound for 30 min, then doxorubicin; viability by WST-1 after 24-48 h. Format: cell-based. How it is done: Various endogenous/exogenous attacks on the cells trigger the mechanisms of cell death which is broadly classified into two types, i.e. apoptosis or necrosis. Using these cell death mechanisms, in the present experimental example, primacy hepatocytes isolated from rats were treated with drugs which were clinically shown to result in serious side-effects of hepatocyte toxicity or various chemicals which derive cell death, and the compounds synthesized in the Examples were estimated for their hepatocyte protective effects, after 24-48 h. The substances used to derive hepatocyte death include CCl4, ActD, H2O2, doxorubicin, anti-Fas Ab/Actinomycin D, acetaminophen, EtOH, CdCl2, palmitate, stearate, cyclophosphamide, terfenadine, diclofenac, simvastatin, and adefovir. Primary hepatocytes were isolated using the method of Seglen P O (Experimental Cell Research 74 (1972) pp 450-454). Briefly, hepatocytes were isolated according to the two-step collagenase perfusion method, and dead cells were removed by low speed (500 rpm) centrifugation for 10 min using percoll gradient (Kreamer B L etc, In Vitro Cellular & Developmental Biology 22 (1986) pp 201-211). During this step, the viability of cells was maintained 90% or above. The cells were suspended in HepatoZYME media (Gibco BRL), and the number of cells was counted. 1.5×10^4 cells in 100 μl were placed into the collagen-coated 96-well plate (BD biocoat), and adhered on the bottom for 3-4 h.
In order to assess the hepatocyte protective effect, above adhered cells were pretreated with the Example compounds for 30 min. At this time, the concentration of the Example compounds were serially diluted by 2-fold or 3-fold over 5 steps starting from 30 uM, 10 uM or 1 uM depending on the experiments, and the final concentration of DMSO was adjusted to 0.2%. 30 min after the treatment by compounds, cells were treated by the substances deriving hepatocyte death or hepatotoxic drugs at the concentrations indicated in Table 1. After 24-48 h, the viability of cells was determined to estimate the hepatocyte protective effects. The viability of cells was determined using WST-1 (MK-400, […]) method by the absorbance at 440 nm. Hepatocyte protective effects of the Example compounds were represented by “EC50” which was calculated from measured values. “EC50” herein means the concentration of the compound at which 50% of maximum protective effect is observed in the experiment.
Take `OC[C@@H]1CSC(c2cc3cccc(NC4CCOC4)c3[nH]2)=N1` (stereo partly drawn) [Example 52, [(R)-2-(7-(tetrahydrofuran-3-yl)amino-1H-indol-2-yl)-4,5-dihydro-thiazol-4-yl]-methanol]: the EC50 came out at 750 nM.
Take `OC[C@@H]1CSC(c2cc3cc(Oc4cccnc4)cc(NC4CCCC4)c3[nH]2)=N1` [Example 61, [(R)-2-(5-(pyridin-3-yl)oxy-7-cyclopentylamino-1H-indol-2-yl)-4,5-dihydro-thiazol-4-yl]-methanol]: the 50% effective concentration (EC50) came out at 780 nM.
`OC[C@@H]1CSC(c2cc3cc(Oc4cccnc4)cc(NC4CCOCC4)c3[nH]2)=N1` [Example 62, [(R)-2-(5-(pyridin-3-yl)oxy-7-(tetrahydropyran-4-yl)amino-1H-indol-2-yl)-4,5-dihydro-thiazol-4-yl]-methanol]: the EC50 worked out at 3770 nM.
Still for that read-out and setting: next, `O=C1c2ccccc2C(=O)N1Cc1cc(NC2CCCC2)c2[nH]c(C3=N[C@H](CO)CS3)cc2c1` [Example 64, [(R)-2-(5-(isoindol-1,3-dion-2-yl)methyl-7-cyclopentylamino-1H-indol-2-yl)-4,5-dihydro-thiazol-4-yl]-methanol]: 540 nM; `O=C(O)C[C@@H]1CSC(c2cc3cc(Br)cc(NC4CCCC4)c3[nH]2)=N1` [Example 68, [(R)-2-(5-bromo-7-cyclopentylamino-1H-indol-2-yl)-4,5-dihydro-thiazol-4-yl]-acetic acid]: 490 nM.
On the same count and under the same terms, the value for `O=C(O)C[C@@H]1CSC(c2cc3cc(F)cc(NC4CCCC4)c3[nH]2)=N1` [Example 71, [(R)-2-(5-fluoro-7-cyclopentylamino-1H-indol-2-yl)-4,5-dihydro-thiazol-4-yl]-acetic acid] was 1100 nM; that for `O=C(O)[C@@H]1CSC(c2cc3cccc(NC4CCOCC4)c3[nH]2)=N1` [Example 78, [(R)-2-(7-(tetrahydropyran-4-yl)amino-1H-indol-2-yl)-4,5-dihydro-thiazol-4-yl]-carboxylic acid] was 29400 nM; that for `CCOc1cc(NC2CCCC2)c2[nH]c(C3=N[C@H](CC(=O)O)CS3)cc2c1` [Example 83, [(R)-2-(5-ethoxy-7-cyclopentylamino-1H-indol-2-yl)-4,5-dihydro-thiazol-4-yl]-acetic acid] was 600 nM.
For the molecule `CCCOc1cc(NC2CCCC2)c2[nH]c(C3=N[C@H](CC(=O)O)CS3)cc2c1` [Example 84, [(R)-2-(5-propyloxy-7-cyclopentylamino-1H-indol-2-yl)-4,5-dihydro-thiazol-4-yl]-acetic acid], the EC50 turned out to be 1600 nM.
Still for that read-out and setting: next, `O=C(O)C[C@@H]1CSC(c2cc3cc(Oc4cccnc4)cc(NC4CCCC4)c3[nH]2)=N1` [Example 88, [(R)-2-(5-(pyridin-3-yl)oxy-7-cyclopentylamino-1H-indol-2-yl)-4,5-dihydro-thiazol-4-yl]-acetic acid]: 1870 nM.
On the same count and under the same terms, the value for `O=C(O)C[C@@H]1CSC(c2cc3cc(Oc4cccnc4)cc(NC4CCOCC4)c3[nH]2)=N1` [Example 90, [(R)-2-(5-(pyridin-3-yl)oxy-7-(tetrahydropyran-4-yl)amino-1H-indol-2-yl)-4,5-dihydro-thiazol-4-yl]-acetic acid] was 7920 nM; that for `Cc1cc(NC2CCOCC2)c2[nH]c(C3=N[C@H](CC(=O)O)CS3)cc2c1` [Example 93, [(R)-2-(5-methyl-7-(tetrahydropyran-4-yl)amino-1H-indol-2-yl)-4,5-dihydro-thiazol-4-yl]-acetic acid] was 550 nM; that for `CS(=O)(=O)c1ccc(Oc2cc(NC3CCCC3)c3[nH]c(C4=N[C@H](CC(=O)O)CS4)cc3c2)cc1` [Example 94, [(R)-2-(5-(4-(methanesulfonyl)phenoxy)-7-cyclopentylamino-1H-indol-2-yl)-4,5-dihydro-thiazol-4-yl]-acetic acid] was 28100 nM.
Same read-out and setting: next, `COC(=O)C[C@@H]1CSC(c2cc3cc(CS(C)(=O)=O)cc(NC4CCCC4)c3[nH]2)=N1` [Example 97, [(R)-2-(5-methanesulfonylmethyl-7-cyclopentylamino-1H-indol-2-yl)-4,5-dihydro-thiazol-4-yl]-acetic acid methyl ester]: 4100 nM.
For `O=C(O)CC[C@@H]1CSC(c2cc3cc(Cl)cc(NC4CCCC4)c3[nH]2)=N1` [Example 101, 3-[(R)-2-(5-chloro-7-cyclopentylamino-1H-indol-2-yl)-4,5-dihydro-thiazol-4-yl]-propionic acid], the EC50 is 1000 to 10000 nM.
The same measure, in the same setting: the value for `CCOC(=O)CC[C@@H]1CSC(c2cc3cc(F)cc(NC4CCCC4)c3[nH]2)=N1` [Example 108, 3-[(R)-2-(5-fluoro-7-cyclopentylamino-1H-indol-2-yl)-4,5-dihydro-thiazol-4-yl]-propionic acid ethyl ester] was below 500 nM.
In the case of `O=C(O)CC[C@@H]1CSC(c2cc3cc(F)cc(NC4CCCC4)c3[nH]2)=N1` [Example 109, 3-[(R)-2-(5-fluoro-7-cyclopentylamino-1H-indol-2-yl)-4,5-dihydro-thiazol-4-yl]-propionic acid], the EC50 worked out at 610 nM.
The same measure, in the same setting: next, `CCOc1cc(NC2CCCC2)c2[nH]c(C3=N[C@H](CCC(=O)O)CS3)cc2c1` [Example 115, 3-[(R)-2-(5-ethoxy-7-cyclopentylamino-1H-indol-2-yl)-4,5-dihydro-thiazol-4-yl]-propionic acid]: below 1000 nM; `O=C(O)CC[C@@H]1CSC(c2cc3cc(OC(F)(F)F)cc(NC4CCCC4)c3[nH]2)=N1` [Example 117, 3-[(R)-2-(5-trifluoromethoxy-7-cyclopentylamino-1H-indol-2-yl)-4,5-dihydro-thiazol-4-yl]-propionic acid]: below 500 nM; `Cc1cc(NC2CCCC2)c2[nH]c(C3=N[C@@H](CC(=O)O)CO3)cc2c1` [Example 119, [(S)-2-(5-methyl-7-cyclopentylamino-1H-indol-2-yl)-4,5-dihydro-oxazol-4-yl]-acetic acid]: 170 nM.
With `Cc1cc(NC2CCOCC2)c2[nH]c(C3=N[C@@H](CC(=O)O)CO3)cc2c1` [Example 120, [(S)-2-(5-methyl-7-(tetrahydropyran-4-yl)amino-1H-indol-2-yl)-4,5-dihydro-oxazol-4-yl]-acetic acid], the EC50 is 1120 nM.
In the case of `O=C(O)C[C@H]1COC(c2cc3cc(Cl)cc(NC4CCCC4)c3[nH]2)=N1` [Example 121, [(S)-2-(5-chloro-7-cyclopentylamino-1H-indol-2-yl)-4,5-dihydro-oxazol-4-yl]-acetic acid], the EC50 came to 470 nM.
Turning to `O=C(O)C[C@H]1COC(c2cc3cc(Cl)cc(NCC4CCOCC4)c3[nH]2)=N1` [Example 122, [(S)-2-(5-chloro-7-(tetrahydropyran-4-yl)methylamino-1H-indol-2-yl)-4,5-dihydro-oxazol-4-yl]-acetic acid], the EC50 worked out at 960 nM.
On the same count and under the same terms, next, `Cc1cc(NC2CCCC2)c2[nH]c(-c3ncc(CO)s3)cc2c1` [Example 130, [2-(5-Methyl-7-cyclopentylamino-1H-indol-2-yl)-thiazol-5-yl]-methanol]: 100 nM.
The same measure, in the same setting: next, `OCc1csc(-c2cc3cccc(NC4CCCC4)c3[nH]2)n1` [Example 133, [2-(7-Cyclopentylamino-1H-indol-2-yl)-thiazol-4-yl]-methanol]: 310 nM.
The same measure, in the same setting: the value for `COC(=O)c1csc(-c2cc3cccc(NC4CCCC4)c3[nH]2)n1` [Example 134, [2-(7-Cyclopentylamino-1H-indol-2-yl)-thiazol-4-yl]-carboxylic acid methyl ester] was 510 nM.
With `Cc1cc(NC2CCC(=O)CC2)c2[nH]c(C3=N[C@H](CC(=O)O)CS3)cc2c1` [Example 135, {(R)-2-[5-methyl-7-(4-oxo-cyclohexylamino)-1H-indol-2-yl]-4,5-dihydro-thiazol-4-yl}acetic acid], the EC50 was found to be 1260 nM.
Still for that read-out and setting: next, `c1cc(NC2CCCC2)c2[nH]c(C3=N[C@H](CN4CCCC4)CS3)cc2c1` [Example 158, Cyclopentyl-[2-((R)-4-pyrrolidin-1-ylmethyl-4,5-dihydro-thiazol-2-yl)-1H-indol-7-yl]-amine]: 910 nM.
The same measure, in the same setting: next, `NC[C@@H]1CSC(c2cc3cccc(NC4CCCC4)c3[nH]2)=N1` [Example 173, [2-((R)-4-aminomethyl-4,5-dihydro-thiazol-2-yl)-1H-indol-7-yl]-cyclopentyl-amine]: 1980 nM.
The same measure, in the same setting: the value for `N[C@H]1CCN(CC[C@@H]2CSC(c3cc4cc(Cl)cc(NC5CCCC5)c4[nH]3)=N2)C1` [Example 176, {2-[(R)-4-((S)-3-amino-pyrrolidin-1-ylethyl)-4,5-dihydro-thiazol-2-yl]-5-chloro-1H-indol-7-yl}-cyclopentyl-amine] was above 1000 nM.

Staying with this assay, now noted: primary rat hepatocytes pretreated with compound for 30 min, then doxorubicin; viability by WST-1 after 24-48 h.
Take `OCC[C@@H]1CSC(c2cc3cc(Cl)cc(NC4CCOCC4)c3[nH]2)=N1` [Example 67, [(R)-2-(5-chloro-7-(tetrahydropyran-4-yl)amino-1H-indol-2-yl)-4,5-dihydro-thiazol-4-yl]-ethanol]: the half-maximal effective concentration (EC50) is above 1000 nM.

Source of the values: patent US8222414B2, “Indole compounds as an inhibitor of cellular necrosis” (LG Life Sciences Ltd., priority 2007, dated 2012).
